{
  "source": "paper PMC3648997",
  "about": "(Bioorganic & medicinal chemistry letters, 2013)",
  "key": {"Stability over 24 h": {"test": "Stability over 24 h", "conditions": "over a period of 24 h"}, "Glutathione reactivity": {"test": "Glutathione reactivity", "conditions": "50 μM glutathione, over 48 h"}, "Keap1 Kelch domain": {"target": "Keap1 Kelch domain (Homo sapiens, UniProt Q14145)", "sequence (Q14145 321-609 limits assumed)": "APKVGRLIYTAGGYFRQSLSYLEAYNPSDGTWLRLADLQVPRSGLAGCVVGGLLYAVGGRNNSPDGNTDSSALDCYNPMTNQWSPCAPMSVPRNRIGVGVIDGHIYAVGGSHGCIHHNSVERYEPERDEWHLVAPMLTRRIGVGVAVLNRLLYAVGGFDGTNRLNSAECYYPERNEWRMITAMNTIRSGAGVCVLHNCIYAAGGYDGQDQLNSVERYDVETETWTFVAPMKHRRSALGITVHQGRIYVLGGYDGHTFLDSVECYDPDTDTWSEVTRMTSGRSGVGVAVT", "test": "SPR solution competition assay", "format": "binding"}},
  "data": [
    {"smiles": "O=C(O)[C@H]1CCCC[C@H]1C(=O)N1CCc2ccccc2[C@H]1CN1C(=O)c2ccccc2C1=O", "note": "[(SRS)-5]", "values": [
      {"measurement": "stability", "setting": "Stability over 24 h", "value": "highly stable"},
      {"measurement": "thiol addition or decomposition", "setting": "Glutathione reactivity", "value": "No thiol addition or decomposition could be detected"}
    ]},
    {"smiles": "NC(=O)C1CCCCC1C(=O)N1CCc2ccccc2C1CN1C(=O)c2ccccc2C1=O", "note": "(centres unmarked) [corresponding amide]", "values": [
      {"measurement": "fold less active than (SRS)-5", "setting": "Keap1 Kelch domain; relative to (SRS)-5", "value": "about 20 fold"}
    ]},
    {"smiles": "COC(=O)C1CCCCC1C(=O)N1CCc2ccccc2C1CN1C(=O)c2ccccc2C1=O", "note": "(centres unmarked) [corresponding methyl ester]", "values": [
      {"measurement": "Keap1 binding activity (in words)", "setting": "Keap1 Kelch domain", "value": "completely inactive"}
    ]},
    {"smiles": "O=C(O)C1CCCCC1C(=O)N1CCc2ccccc2C1CN1Cc2ccccc2C1=O", "note": "(centres unmarked) [lactam]", "values": [
      {"measurement": "Keap1 binding activity (in words)", "setting": "Keap1 Kelch domain", "value": "only slight decrease in Keap1 binding"}
    ]}
  ]
}
